{"source": "paper PMC10166914", "about": "“GTN057, a komaroviquinone derivative, induced myeloma cells' death in vivo and inhibited c‐MET tyrosine kinase” (Cancer Medicine, 2023)", "key": {"[1]": {"test_system": "CD138-positive cells obtained from MM patients' bone marrow", "assay": "Growth inhibition of patient cells, MTT assay", "format": "cell-based", "conditions": "Homo sapiens, 48 h", "excerpt": "Mononuclear cells were obtained from the bone marrow aspirates of MM patients treated at Tokyo Saiseikai Central Hospital, by centrifugation with Lymphoprep™ (Axis‐Shield). The mononuclear cells were then labeled with CD138 MicroBeads from Miltenyi Biotec (Bergisch Gladbach). The labeled CD138‐positive cells were magnetically purified using MACS Columns (Miltenyi Biotec).\nFor the 3‐[…] (MTT) assay (Roche Diagnostics), 6 × 10^4 cells/mL of CD138‐positive bone marrow cells were cultured in 96‐well plates in triplicate with various concentrations of GTN057 for 48 h. The cell viability was examined by MTT dye absorbance in accord with the manufacturer's manual. We obtained the IC50 values by drawing approximate straight lines in semilogarithmic growth curves, using Microsoft Excel."}, "KMS11 cells": {"test_system": "KMS11 cells", "assay": "In vivo tumor growth assay, KMS11 xenograft", "design": "species or system ICR/SCID mice", "conditions": "100 mg/kg i.p., after 2 weeks of treatment, KMS11-xenografted SCID mice", "description": "For the in vivo tumor growth assay, we injected 3 × 10^7 cells of KMS11 cells subcutaneously into the flank of male 5‐week‐old ICR/SCID mice. When the tumors reached 100 mm^3, we injected (i.p.) 20 or 100 mg/kg of GTN057 solubilized in 1% Tween® 80 + 10% DMSO in saline twice every 3 days for 2 weeks. We measured the tumor volumes every day for 2 weeks as the length × width^2 × 0.52.[21]"}, "[2]": {"assay": "Pharmacokinetic study, LC-MS/MS of plasma", "format": "in vivo, ICR mice", "description": "For the pharmacokinetic study, 0 or 100 mg/kg of GTN057 (1% Tween® 80 + 10% DMSO in saline) was injected (i.p.) into male 5‐week‐old ICR mice. Peripheral blood samples were taken using heparinized hematocrit tubes from the tail vein of each mouse at 0, 15, and 30 min and 1, 2, 4, and 24 h. The blood samples were applied to centrifugation (1100 × g, 15 min at 4°C) and we then collected the supernatant plasma. […] (Wako) and MeOH (Kanto, Tokyo) for LC–MS/MS (liquid chromatography–tandem mass spectrometry) measurements were mixed in a 1:1 ratio, and verapamil hydrochloride (an internal standard substance) was dissolved to the final concentration of 120 ng/mL to prepare a deproteinizing agent. We diluted the blood samples four times with this deproteinizing agent. After 15 min on ice, each deproteinized plasma sample was centrifuged (9100 × g, 10 min, 4°C). The supernatants were collected and used for the LC–MS/MS analyses.\nAll compounds including GTN057 were analyzed with a mass spectrometer (AB SCIEX) coupled to an HPLC (high‐performance liquid chromatography) system (Shimadzu). The peptides were separated with the use of an Atlantis® dC18, 3‐μm, 100 Å column (Waters). The solvent composition was 15% for solution A (100 mM CH3COONH4) and 85% for solution B (CH3OH). The HPLC measurement settings were as follows. Constant flow rate: 0.2 mL/min, column temperature: 40°C. The MS settings were: spray voltage, 5500 V; turbo heater temperature, 300°C."}, "HGF/c-MET signaling": {"test_system": "HGF/c-MET signaling", "assay": "Western blot, HGF-stimulated signaling in KMS11, KMS21 and KMS34 cells", "format": "cell-based, human", "conditions": "20 μM GTN057", "description": "(§1) MM cells (4 × 10^5 cells/mL) were incubated with 0–20 μM GTN057 for 12 h. The cells were then co‐cultured with 0–50 ng/mL of hepatocyte growth factor (HGF) (PeproTech, London) or 0–20 ng/mL of fibroblast growth factor (FGF)‐2 (PeproTech) with 1 unit/mL of heparin in RPMI containing 4% dialyzed FCS (Gibco) for the KMS11 and KMS34 cells and 10% dialyzed FCS for the KMS21 cells for 15 min at RT (room temperature). A549 cells were co‐cultured with 0–50 ng/mL of epidermal growth factor (EGF) (PeproTech) in Eagle's MEM containing 4% dialyzed FCS for 15 min at RT. […]\n(§2) The protein concentrations were measured using a BCA Protein Assay Kit (Thermo Fisher Scientific). […]\n(§3) Antibodies against phospho‐STAT3 (Tyr705), phospho‐Akt (Ser473), p44/42 MAPK (Erk 1/2), phosphor‐p44/42 MAPK (Thr202/Tyr 204), and phospho‐c‐Met (Tyr1234/1235) (all from Cell Signaling Technology, Danvers, MA) or STAT3, Akt, c‐Met, and β‐actin (all from Santa Cruz Biotechnology, Santa Cruz, CA) or phospho‐c‐Met (Tyr1230/1234/1235) (Biosource, Camarillo, CA for KMS34 cells in Figure 3A) were each used at 1:1000 dilution. […] The Western blotting signals were detected by enhanced ECL chemiluminescence (Amersham). The signal intensity of each band was quantified densitometrically with ImageJ software (ver. 1.48, U.S. National Institutes of Health)."}, "[3]": {"test_system": "EGF stimulated ERK1/2, STAT3, AKT1 phosphorylation", "assay": "Western blot, EGF-stimulated signaling in A549 cells", "format": "cell-based, human", "conditions": "EGF stimulation", "description": "as §1, §2, §3"}, "[4]": {"conditions": "male, mouse, ip, single i.p. injection 100 mg/kg, ICR mice, plasma"}}, "note": "Several values for one entry are separate records, joined by “and”; a condition that tells them apart may be missing. Identical values can stand only once.", "data": [{"compound": "COc1c(OC(C)=O)c2c(c(O)c1C(C)C)C(=O)CC1C(C)(C)CCC[C@]1(O)C2", "note": "(some centres unmarked) [GTN057]", "values": [{"measurement": "IC50", "setting": "[1]; Patient 1 CD138+ cells", "result": 12.1, "unit": "µM"}, {"measurement": "IC50", "setting": "[1]; Patient 2 CD138+ cells", "result": 16.3, "unit": "µM"}, {"measurement": "IC50", "setting": "[1]; Patient 3 CD138+ cells", "result": 26.3, "unit": "µM"}, {"measurement": "IC50", "setting": "[1]; Patient 4 CD138+ cells", "result": 18.7, "unit": "µM"}, {"measurement": "Average tumor volume", "setting": "KMS11 cells", "result": "0.71 ± 0.17", "unit": "cm^3"}, {"measurement": "Average tumor weight", "setting": "KMS11 cells", "result": "0.98 ± 0.16", "unit": "g"}, {"measurement": "Cmax", "setting": "[2]; [4]", "result": "790 ng/mL and 1.95 µM"}, {"measurement": "Tmax", "setting": "[2]; [4]", "result": 30, "unit": "min"}, {"measurement": "Degradation in plasma", "setting": "[2]; plasma, LC-MS/MS, preliminary data", "result": "immediately dehydrated (m/z 387) or deacetylated (m/z 363) in plasma"}, {"measurement": "plasma disappearance half-time", "setting": "[2]; single i.p. injection 100 mg/kg, ICR mice", "result": 110, "unit": "min"}, {"measurement": "Presence in blood at 24 h post-injection", "setting": "[2]; single i.p. injection 100 mg/kg, ICR mice, 24 h", "result": "almost completely disappeared"}, {"measurement": "Phosphorylation of ERK1/2, STAT3 and Akt1", "setting": "HGF/c-MET signaling; KMS11, KMS21, KMS34 cells, 50 ng/mL HGF", "result": "diminished"}, {"measurement": "Phosphorylation at y1234 y1235 of c-MET", "setting": "HGF/c-MET signaling; co-culture with HGF", "result": "abolished"}, {"measurement": "ERK1/2, STAT3, AKT1 phosphorylation levels", "setting": "[3]", "result": "not altered"}]}]}
